In patent US20040214832A1, “Piperazine derivative renin inhibitors” (priority 2003, published 2004) one finds IC50 data, which are given here for 28 compounds.

A value given as a limit tells only on which side of the number the result lay.

In this assay the target is T1, human renin (Homo sapiens, UniProt P00797).
T1 sequence (P00797 67-406): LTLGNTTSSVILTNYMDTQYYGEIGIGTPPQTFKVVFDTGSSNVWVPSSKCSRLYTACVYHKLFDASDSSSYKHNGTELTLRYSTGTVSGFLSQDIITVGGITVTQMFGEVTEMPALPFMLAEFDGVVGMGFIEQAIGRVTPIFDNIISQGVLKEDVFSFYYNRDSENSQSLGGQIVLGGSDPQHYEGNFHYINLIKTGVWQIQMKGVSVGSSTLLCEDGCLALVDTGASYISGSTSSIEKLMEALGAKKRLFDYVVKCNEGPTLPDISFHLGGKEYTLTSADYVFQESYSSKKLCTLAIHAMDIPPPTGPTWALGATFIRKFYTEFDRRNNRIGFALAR
In words: Determination of renin IC50 by tGFP FRET assay. Format: biochemical. The note with it: Human recombinant renin, tandem GFP substrate 650 nM, 60 min incubation with compound, pH 7.4, 11-point curve. The text has this: Determination of Renin IC50 by tGFP FRET Assay
The tGFP FRET (fluorescence resonance energy transfer) assay utilizes a tandem GFP substrate (60 kDa, Discovery Technologies) containing nine amino acid recognition sequences for human renin flanked by two GFP proteins. The assay is used to determine the ability of a compound to act as an inhibitor of renin enzymatic activity by determination of that concentration of test compound that inhibits by 50% (IC50) the ability of renin to cleave the tandem GFP substrate. The IC50 values are determined over an 11-point curve at concentrations of 100 μM to 1 pM. Each compound concentration used to construct the curve was dependent on renin inhibitor potency. For example, subnanomolar IC50 values were determined over an 11-point curve at concentrations of 10 μM to 1 pM. All other IC50 values were determined over an 11-point curve at concentrations of 100 μM to 0.0065 μM. The concentrations were achieved by diluting a 9.1 nM stock of Human recombinant renin in the appropriate amount of buffer containing 50 mM HEPES, 1 mM EDTA, 1% PEG (8000 MW), 1 mM DTT, 0.1% BSA, pH 7.4 to achieve the final concentration of 50.4 μIU. The tGFP substrate stock solution of 43 μM was diluted with the appropriate amount of the above buffer to obtain the final concentration of 650 nM. In addition, 1 μl of the compound is diluted in dimethylsulfoxide (DMSO) to represent an […] log scale (5% final). The SR renin and compound are added to a 384 capacity plate by an automated robot (BIOMEK). The plate is incubated for 60 minutes; upon completion the tGFP substrate is added.
The IC50 is determined by monitoring the increase in […] at 432/432 nm excitation, 530/475 nm emission with a cutoff at 515/455 nm, in a fluorometric plate reader.
Regarding `COc1ccccc1COCCCOc1ccc(N2C(=O)CNC[C@@H]2COCc2ccccn2)cc1` [Example 29, (6R)-1-{4-[3-(2-methoxybenzyloxy)-propoxy]-phenyl}-6-(pyridin-2-ylmethoxymethyl)-piperazin-2-one], the IC50 (usually the point on the concentration scale where inhibition reaches its midpoint) is above 1000 nM.
Turning to `COc1ccccc1COCCCOc1ccc(N2C(=O)CNC[C@@H]2COCc2ccc(Br)cc2)cc1` [Example 30, (6R)-6-(4-bromobenzyloxymethyl)-1-{4-[3-(2-methoxybenzyloxy)-propoxy]-phenyl}-piperazin-2-one], the IC50 is above 1000 nM.
To `COc1ccccc1COCCCOc1ccc(N2C(=O)CNC[C@@H]2COc2ccc3c(c2)N(CCOC(C)=O)CCC3)cc1` [Example 31, acetic acid 2-[7-(1-{4-[3-(2-methoxybenzyloxy)-propoxy]-phenyl}-6-oxopiperazin-(2R)-ylmethoxy)-3,4-dihydro-2H-quinolin-1-yl]-ethyl ester] belongs 0.42 nM.
To `COc1ccccc1COCCCOc1ccc(N2CCNC[C@@H]2COc2ccc3ccccc3c2)cc1` [Example 32, (2R)-1-{4-[3-(2-methoxybenzyloxy)-propoxy]-phenyl}-2-(naphthalen-2-yloxymethyl)-piperazine] belongs 153 nM.
As to `COc1ccc(COC[C@H]2CNCCN2c2ccc(OCCCOCc3ccccc3OC)cc2)cc1` [Example 33, (2R)-2-(4-methoxybenzyloxymethyl)-1-{4-[3-(2-methoxy-benzyloxy)-propoxy]-phenyl}-piperazine], the concentration for half-maximal inhibition (IC50) stood at 3990 nM.
To `COc1ccc(COC[C@H]2CNCCN2c2ccc(OCCCOCc3ccccc3)cc2)cc1` [Example 34, (2R)-1-[4-(3-benzyloxypropoxy)-phenyl]-2-(4-methoxybenzyloxymethyl)-piperazine] belongs 10900 nM.
To `c1ccc(COc2ccc(N3CCNC[C@@H]3COc3ccc4ccccc4c3)cc2)cc1` [Example 35, (2R)-1-(4-benzyloxyphenyl)-2-(naphthalen-2-yloxymethyl)-piperazine] belongs above 1000 nM; to `COc1ccc(COC[C@H]2CNCCN2c2ccc(OCc3ccccc3)cc2)cc1` [Example 36, (2R)-1-(4-benzyloxyphenyl)-2-(4-methoxybenzyloxymethyl)-piperazine], above 1000 nM.
Next, `COc1ccccc1COCCCOc1ccc(N2C(=O)CNC[C@@H]2COc2ccc3ccccc3c2)cc1` [Example 37, (6R)-1-{4-[3-(2-methoxybenzyloxy)-propoxy]-phenyl}-6-(naphthalen-2-yloxymethyl)-piperazin-2-one]: 54 nM; `c1ccc(COCCCOc2ccc(N3CCNC[C@@H]3COc3ccc4ccccc4c3)cc2)cc1` [Example 38, (2R)-1-[4-(3-benzyloxypropoxy)-phenyl]-2-(naphthalen-2-yloxymethyl)-piperazine]: 1420 nM.
With `COc1ccccc1COCCCOc1ccc(N2C(=O)CNC[C@@H]2COc2ccc3ccccc3c2)cc1F` [Example 39, (6R)-1-{3-fluoro-4-[3-(2-methoxybenzyloxy)-propoxy]-phenyl}-6-(naphthalen-2-yloxymethyl)-piperazin-2-one], the IC50 came to 152 nM.
To `COc1ccccc1COCCCOc1ccc(N2CCNC[C@@H]2COc2ccc3c(c2)CCCC3)cc1` [Example 40, (2R)-1-{4-[3-(2-methoxybenzyloxy)-propoxy]-phenyl}-2-(5,6,7,8-tetrahydronaphthalen-2-yloxymethyl)-piperazine] belongs 440 nM.
As for `COc1ccccc1COCCCOc1ccc(N2C(=O)CNC[C@@H]2COc2ccc3cccnc3c2)cc1` [Example 41, (6R)-1-{4-[3-(2-methoxybenzyloxy)-propoxy]-phenyl}-6-(quinolin-7-yloxymethyl)-piperazin-2-one], the half-maximal inhibitory concentration (IC50) was 822 nM.
To `COc1ccccc1COCCCOc1ccc(N2C(=O)CNC[C@@H]2COc2ccc3c(c2)NCCC3)cc1` [Example 42, (6R)-1-{4-[3-(2-methoxybenzyloxy)-propoxy]-phenyl}-6-(1,2,3,4-tetrahydroquinolin-7-yloxymethyl)-piperazin-2-one] belongs 124 nM; to `COc1ccccc1COCCCOc1c(F)cc(N2C(=O)CNC[C@@H]2COc2ccc3ccccc3c2)cc1F` [Example 43, (6R)-1-{3,5-difluoro-4-[3-(2-methoxybenzyloxy)-propoxy]-phenyl}-6-(naphthalen-2-yloxymethyl)-piperazin-2-one], 883 nM; to `COc1ccccc1COCCCOc1ccc(N2C(=O)CNC[C@@H]2COc2ccc3c(c2)N(CCCO)CCC3)cc1` [Example 44, (6R)-6-[1-(3-hydroxypropyl)-1,2,3,4-tetrahydroquinolin-7-yloxymethyl]-1-{4-[3-(2-methoxybenzyloxy)-propoxy]-phenyl}-piperazin-2-one], 37 nM.
As to `COc1ccccc1COCCCOc1ccc(N2C(=O)CNC[C@@H]2COCc2ccccc2)cc1` [Example 45, (6R)-6-benzyloxymethyl-1-{4-[3-(2-methoxybenzyloxy)-propoxy]-phenyl}-piperazin-2-one], the 50% inhibitory concentration (IC50) stood at 7010 nM.
To `COc1ccccc1COCCCOc1ccc(N2C(=O)CNC[C@H]2COCc2ccc(F)cc2)cc1` [Example 46, (6S)-6-(4-fluorobenzyloxymethyl)-1-{4-[3-(2-methoxybenzyloxy)-propoxy]-phenyl}-piperazin-2-one] belongs 5590 nM; to `O=C(NCCc1ccccc1)c1ccc(N2C(=O)CNC[C@@H]2COc2ccc3ccccc3c2)cc1` [Example 47, 4-[(2R)-2-(naphthalen-2-yloxymethyl)-6-oxopiperazin-1-yl]-N-phenethylbenzamide], above 1000 nM; to `COCCCOc1cc(N2C(=O)CNC[C@@H]2COc2ccc3ccccc3c2)ccc1OC` [Example 48, (6R)-1-[4-methoxy-3-(3-methoxypropoxy)-phenyl]-6-(naphthalen-2-yloxymethyl)-piperazin-2-one], 3840 nM.
Regarding `CCOCCNC(=O)c1ccc(N2C(=O)CNC[C@@H]2COc2ccc3ccccc3c2)cc1` [Example 49, N-(2-ethoxyethyl)-4-[(2R)-2-(naphthalen-2-yloxymethyl)-6-oxopiperazin-1-yl]-benzamide], the IC50 was above 1000 nM.
Next, `COc1cccc(CCNC(=O)c2ccc(N3C(=O)CNC[C@@H]3COc3ccc4ccccc4c3)cc2)c1` [Example 50, N-[2-(3-methoxyphenyl)-ethyl]-4-[(2R)-2-(naphthalen-2-yloxymethyl)-6-oxopiperazin-1-yl]-benzamide]: above 1000 nM; `COc1ccccc1COCCCOc1ccc(N2C(=O)CNC[C@@H]2COc2ccc3ccncc3c2)cc1` [Example 51, (6R)-6-(isoquinolin-7-yloxymethyl)-1-{4-[3-(2-methoxybenzyloxy)-propoxy]-phenyl}-piperazin-2-one]: 528 nM; `COc1ccccc1COCCCOc1ccc(N2C(=O)CNC[C@@H]2COc2ccc3ncccc3c2)cc1` [Example 52, (6R)-1-{4-[3-(2-methoxybenzyloxy)-propoxy]-phenyl}-6-(quinolin-6-yloxymethyl)-piperazin-2-one]: 3450 nM.
Turning to `O=C(NCCOc1ccccc1)c1ccc(N2C(=O)CNC[C@@H]2COc2ccc3ccccc3c2)cc1` [Example 53, 4-[(2R)-2-(naphthalen-2-yloxymethyl)-6-oxopiperazin-1-yl]-N-(2-phenoxyethyl)-benzamide], the IC50 was above 1000 nM.
Regarding `COc1ccccc1COCCCOc1ccc(N2C(=O)CNC[C@@H]2COc2ccc3c(c2)CCCN3C(C)=O)cc1` [Example 54, (6R)-6-(1-acetyl-1,2,3,4-tetrahydroquinolin-6-yloxymethyl)-1-{4-[3-(2-methoxybenzyloxy)-propoxy]-phenyl}-piperazin-2-one], the IC50 was above 1000 nM.
With `COc1ccccc1COCCCOc1ccc(N2C(=O)CNC[C@@H]2COc2ccc3c(c2)N(Cc2cscn2)CCC3)cc1` [Example 55, (6R)-1-{4-[3-(2-methoxybenzyloxy)-propoxy]-phenyl}-6-(1-thiazol-4-ylmethyl-1,2,3,4-tetrahydroquinolin-7-yloxymethyl)-piperazin-2-one], the 50% inhibitory concentration (IC50) came to 379 nM.
Regarding `COc1ccccc1COCCCOc1ccc(N2C(=O)CNC[C@@H]2COc2ccc3c(c2)N(CC(N)=O)CCC3)cc1` [Example 56, 2-[7-(1-{4-[3-(2-methoxybenzyloxy)-propoxy]-phenyl}-6-oxopiperazin-(2R)-ylmethoxy)-3,4-dihydro-2H-quinolin-1-yl]-acetamide], the IC50 was 435 nM.
